Among the data in US20110200557A1, “NEW 2-AMIDOTHIADIAZOLE DERIVATIVES” (priority 2008, published 2011) are EC50 values, retold here.

This test deals with S1P1 receptors (Homo sapiens, UniProt P21453). Put plainly: 35S-GTPyS binding assay. It is filed as biochemical. As to conditions: membranes; compound 0.1 nM-10 μM; 0.1 nM 35S-GTPyS; 10 μM S1P as 100% maximum efficacy; 90 min at room temperature. How it is done: The effect of the compounds was measured using a 35S-GTPyS binding assay. Briefly, membranes were incubated in a buffer containing 20 mM HEPES pH 7.4, 100 mM NaCl, 10 mM MgCl2, 10 μM GDP, 50 μg/ml saponin and 0.2% fatty acid-free BSA at various concentrations (0.1 nM-10 μM) and 0.1 nM 35S-GTPyS. 10 μM S1P was used as 100% maximum efficacy. The assay was incubated for 90 min at room temperature with gentle mixing, and terminated by filtrating the reaction mixture through GF/C filter plates using the Manifold Filtration System. The filters were immediately washed with sodium phosphate pH 7.4 buffers. After drying the filter plate's scintillant liquid were added to each well and 35S-GTPyS binding was measured on a Trilux Scintillation Counter.
S1P1 receptors, sequence (P21453 whole entry): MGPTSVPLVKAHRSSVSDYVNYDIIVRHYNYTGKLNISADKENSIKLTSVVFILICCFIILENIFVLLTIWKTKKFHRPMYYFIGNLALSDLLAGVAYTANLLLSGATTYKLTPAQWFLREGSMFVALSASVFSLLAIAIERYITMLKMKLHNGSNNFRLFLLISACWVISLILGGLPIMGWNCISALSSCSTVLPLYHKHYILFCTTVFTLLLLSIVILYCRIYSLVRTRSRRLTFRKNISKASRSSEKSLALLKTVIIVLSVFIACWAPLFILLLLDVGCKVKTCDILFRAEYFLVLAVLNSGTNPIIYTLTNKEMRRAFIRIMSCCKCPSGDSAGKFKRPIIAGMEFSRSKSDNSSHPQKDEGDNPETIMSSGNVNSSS

The term EC50 denotes the concentration at which the effect is half-maximal. In turn, `CCCCN(C(=O)c1ccccc1Cl)c1nnc(-c2cc(C)c(O)c(C)c2)s1` [Example 8, N-butyl-2-chloro-N-[5-(4-hydroxy-3,5-dimethylphenyl)-1,3,4-thiadiazol-2-yl]benzamide] returned an EC50 of 6.2 nM.

Consider `CCCCN(C(=O)c1ccccc1F)c1nnc(-c2cc(C)c(OC)c(C)c2)s1` [Example 9, N-butyl-2-fluoro-N-[5-(4-methoxy-3,5-dimethylphenyl)-1,3,4-thiadiazol-2-yl]benzamide], for which the response was half-maximal at 4.4 nM (EC50). This EC50 and that of the compound before are within 1.5-fold of each other.

The compound `CCCCN(C(=O)c1ccccc1Cl)c1nnc(-c2cc(C)c(OCCOC)c(C)c2)s1` [Example 32, N-butyl-2-chloro-N-{5-[4-(2-methoxyethoxy)-3,5-dimethylphenyl]-1,3,4-thiadiazol-2-yl}benzamide] came in with an EC50 of 64.2 nM.

With `CCCCN(C(=O)c1ccccc1F)c1nnc(-c2ccc3nccn3c2)s1` [Example 49, N-butyl-2-fluoro-N-(5-(imidazo[1,2-a]pyridin-6-yl)-1,3,4-thiadiazol-2-yl)benzamide], the 50% effective concentration (EC50) was 88.7 nM.

Turning to `CCCCN(C(=O)c1ccccc1OC)c1nnc(-c2cc(C)c(OC)c(C)c2)s1` [Example 19, N-butyl-2-methoxy-N-[5-(4-methoxy-3,5-dimethylphenyl)-1,3,4-thiadiazol-2-yl]benzamide], the EC50 turned out to be 8.3 nM.

In turn, `CCCCN(C(=O)c1ccccc1Cl)c1nnc(-c2ccc(C(N)=O)cc2)s1` [Example 53, N-butyl-N-(5-(4-carbamoylphenyl)-1,3,4-thiadiazol-2-yl)-2-chlorobenzamide] showed an EC50 of 46.3 nM.

Regarding `CCCCN(C(=O)c1ccccc1F)c1nnc(-c2ccc(CN3CCC(C(=O)O)C3)cc2C)s1` (stereo not drawn) [Example 97, 1-(4-{5-[Butyl(2-fluorobenzoyl)amino]-1,3,4-thiadiazol-2-yl}-3-methylbenzyl)-pyrrolidine-3-carboxylic acid], the response was half-maximal at 2 nM (EC50). Against the preceding compound, the EC50 is about 23-fold lower.

Regarding `CCCCN(C(=O)Cc1ccccc1F)c1nnc(-c2ccc(CN3CC(C(=O)O)C3)cc2)s1` [Example 87, 1-[4-(5-{Butyl[(2-fluorophenyl)acetyl]amino}-1,3,4-thiadiazol-2-yl)benzyl]azetidine-3-carboxylic acid], a half-maximal effect (EC50) was put at 1.4 nM.

Compound `CCCCN(C(=O)c1ccccc1Cl)c1nnc(-c2cc(Cl)nc(OC)c2)s1` [Example 31, N-Butyl-2-chloro-N-[5-(2-chloro-6-methoxypyridin-4-yl)-1,3,4-thiadiazol-2-yl]benzamide] yielded an EC50 of 3.4 nM.

For `CCCCN(C(=O)c1cccc(Cl)c1F)c1nnc(-c2cc(C)c(OCC(O)CO)c(C)c2)s1` (stereo not drawn) [Example 111, N-Butyl-3-chloro-N-{5-[4-(2,3-dihydroxypropoxy)-3,5-dimethylphenyl]-1,3,4-thiadiazol-2-yl}-2-fluorobenzamide], the EC50 was 0.15 nM.

In turn, `CCN(C(=O)c1cccc(Cl)c1F)c1nnc(-c2ccc(CN3CC(C(=O)O)C3)cc2)s1` [Example 108, 1-(4-{5-[(3-Chloro-2-fluorobenzoyl)(ethyl)amino]-1,3,4-thiadiazol-2-yl}benzyl)-azetidine-3-carboxylic acid] had an EC50 of 7 nM.

`COc1c(C)cc(-c2nnc(N(CC3CC3)C(=O)c3ccccc3F)s2)cc1C` [Example 46, N-(cyclopropylmethyl)-2-fluoro-N-[5-(4-methoxy-3,5-dimethylphenyl)-1,3,4-thiadiazol-2-yl]benzamide] displayed an EC50 of 36 nM.

Turning to `CCCCN(C(=O)c1ccccc1Cl)c1nnc(-c2cc(C)nc(Cl)c2)s1` [Example 39, N-Butyl-2-chloro-N-[5-(2-chloro-6-methylpyridin-4-yl)-1,3,4-thiadiazol-2-yl]benzamide], the EC50 was determined as 3.8 nM.

`CCCCN(C(=O)c1ccccc1F)c1nnc(-c2ccc(C(=O)NCCC(=O)O)cc2)s1` [Example 69, N-(4-{5-[Butyl(2-fluorobenzoyl)amino]-1,3,4-thiadiazol-2-yl}benzoyl)-beta-alanine] yielded an EC50 of 55 nM.

For the compound `CCCCN(C(=O)c1ccccc1F)c1nnc(-c2ccc(OC)nc2)s1` [Example 48, N-butyl-2-fluoro-N-(5-(6-methoxypyridin-3-yl)-1,3,4-thiadiazol-2-yl)benzamide], the midpoint of the response, the EC50, lay at 116 nM.

The compound `CCCCN(C(=O)c1ccccc1Cl)c1nnc(-c2ccc(CN3CCC(C(=O)O)CC3)cc2C)s1` [Example 118, 1-(4-{5-[Butyl(2-chlorobenzoyl)amino]-1,3,4-thiadiazol-2-yl}-3-methylbenzyl)-piperidine-4-carboxylic acid] had an EC50 of 4.42 nM.

`CCCCN(C(=O)c1ccccc1F)c1nnc(-c2cc(C)c(OCCN)c(C)c2)s1` [Example 105, N-{5-[4-(2-Aminoethoxy)-3,5-dimethylphenyl]-1,3,4-thiadiazol-2-yl}-N-butyl-2-fluorobenzamide] yielded an EC50 of 0.45 nM.

Compound `CCCCN(C(=O)c1ccccc1F)c1nnc(-c2cc(C)c(OCC(O)CN)c(C)c2)s1` (stereo not drawn) [Example 113, N-{5-[4-(3-Amino-2-hydroxypropoxy)-3,5-dimethylphenyl]-1,3,4-thiadiazol-2-yl}-N-butyl-2-fluorobenzamide] showed an EC50 of 1.52 nM.
